Our source for the IC50 values is paper PMC5513037, “Examining the influence of specificity ligands and ATP-competitive ligands on the overall effectiveness of bivalent kinase inhibitors” (Proteome Science, 2017).

Structures are written as SMILES.

What all share (test): Dasatinib-matrix competition in K562 lysate
Common to all, as to settings: residual binding 50 value; read-out: RB50 (the source's name)

Test [1] has as its target T1, PIK3R4 (Homo sapiens, UniProt Q99570).
T1 construct: endogenous in cells; host or cells: K562

Test [2] deals with T2, N-TAF1 (Homo sapiens, UniProt P21675).
T2 construct: endogenous in cells; host or cells: K562

For test [3], the target named is T3, TEX14 (Homo sapiens, UniProt Q8IWB6).
T3 construct: endogenous in cells; host or cells: K562

The target in test [4] is T4, ATR (Homo sapiens, UniProt Q13535).
T4 construct: endogenous in cells; host or cells: K562

In test [5] the target is T5, SMG1 (Homo sapiens, UniProt Q96Q15).
T5 construct: endogenous in cells; host or cells: K562

The target in test [6] is T6, SPEG (Homo sapiens, UniProt Q15772).
T6 construct: endogenous in cells; host or cells: K562

For test [7], the target named is ATM (Homo sapiens, UniProt Q13315). Details: endogenous in cells; host or cells: K562.
The target of test [8] is T7, TTN (Homo sapiens, UniProt Q8WZ42).
T7 construct: endogenous in cells; host or cells: K562

For test [9], the target named is T8, TKT (Homo sapiens, UniProt P29401).
T8 construct: endogenous in cells; host or cells: K562

In test [10] the target is T9, OBSCN (Homo sapiens, UniProt Q5VST9).
T9 construct: endogenous in cells; host or cells: K562

ATM, sequence (Q13315 whole entry): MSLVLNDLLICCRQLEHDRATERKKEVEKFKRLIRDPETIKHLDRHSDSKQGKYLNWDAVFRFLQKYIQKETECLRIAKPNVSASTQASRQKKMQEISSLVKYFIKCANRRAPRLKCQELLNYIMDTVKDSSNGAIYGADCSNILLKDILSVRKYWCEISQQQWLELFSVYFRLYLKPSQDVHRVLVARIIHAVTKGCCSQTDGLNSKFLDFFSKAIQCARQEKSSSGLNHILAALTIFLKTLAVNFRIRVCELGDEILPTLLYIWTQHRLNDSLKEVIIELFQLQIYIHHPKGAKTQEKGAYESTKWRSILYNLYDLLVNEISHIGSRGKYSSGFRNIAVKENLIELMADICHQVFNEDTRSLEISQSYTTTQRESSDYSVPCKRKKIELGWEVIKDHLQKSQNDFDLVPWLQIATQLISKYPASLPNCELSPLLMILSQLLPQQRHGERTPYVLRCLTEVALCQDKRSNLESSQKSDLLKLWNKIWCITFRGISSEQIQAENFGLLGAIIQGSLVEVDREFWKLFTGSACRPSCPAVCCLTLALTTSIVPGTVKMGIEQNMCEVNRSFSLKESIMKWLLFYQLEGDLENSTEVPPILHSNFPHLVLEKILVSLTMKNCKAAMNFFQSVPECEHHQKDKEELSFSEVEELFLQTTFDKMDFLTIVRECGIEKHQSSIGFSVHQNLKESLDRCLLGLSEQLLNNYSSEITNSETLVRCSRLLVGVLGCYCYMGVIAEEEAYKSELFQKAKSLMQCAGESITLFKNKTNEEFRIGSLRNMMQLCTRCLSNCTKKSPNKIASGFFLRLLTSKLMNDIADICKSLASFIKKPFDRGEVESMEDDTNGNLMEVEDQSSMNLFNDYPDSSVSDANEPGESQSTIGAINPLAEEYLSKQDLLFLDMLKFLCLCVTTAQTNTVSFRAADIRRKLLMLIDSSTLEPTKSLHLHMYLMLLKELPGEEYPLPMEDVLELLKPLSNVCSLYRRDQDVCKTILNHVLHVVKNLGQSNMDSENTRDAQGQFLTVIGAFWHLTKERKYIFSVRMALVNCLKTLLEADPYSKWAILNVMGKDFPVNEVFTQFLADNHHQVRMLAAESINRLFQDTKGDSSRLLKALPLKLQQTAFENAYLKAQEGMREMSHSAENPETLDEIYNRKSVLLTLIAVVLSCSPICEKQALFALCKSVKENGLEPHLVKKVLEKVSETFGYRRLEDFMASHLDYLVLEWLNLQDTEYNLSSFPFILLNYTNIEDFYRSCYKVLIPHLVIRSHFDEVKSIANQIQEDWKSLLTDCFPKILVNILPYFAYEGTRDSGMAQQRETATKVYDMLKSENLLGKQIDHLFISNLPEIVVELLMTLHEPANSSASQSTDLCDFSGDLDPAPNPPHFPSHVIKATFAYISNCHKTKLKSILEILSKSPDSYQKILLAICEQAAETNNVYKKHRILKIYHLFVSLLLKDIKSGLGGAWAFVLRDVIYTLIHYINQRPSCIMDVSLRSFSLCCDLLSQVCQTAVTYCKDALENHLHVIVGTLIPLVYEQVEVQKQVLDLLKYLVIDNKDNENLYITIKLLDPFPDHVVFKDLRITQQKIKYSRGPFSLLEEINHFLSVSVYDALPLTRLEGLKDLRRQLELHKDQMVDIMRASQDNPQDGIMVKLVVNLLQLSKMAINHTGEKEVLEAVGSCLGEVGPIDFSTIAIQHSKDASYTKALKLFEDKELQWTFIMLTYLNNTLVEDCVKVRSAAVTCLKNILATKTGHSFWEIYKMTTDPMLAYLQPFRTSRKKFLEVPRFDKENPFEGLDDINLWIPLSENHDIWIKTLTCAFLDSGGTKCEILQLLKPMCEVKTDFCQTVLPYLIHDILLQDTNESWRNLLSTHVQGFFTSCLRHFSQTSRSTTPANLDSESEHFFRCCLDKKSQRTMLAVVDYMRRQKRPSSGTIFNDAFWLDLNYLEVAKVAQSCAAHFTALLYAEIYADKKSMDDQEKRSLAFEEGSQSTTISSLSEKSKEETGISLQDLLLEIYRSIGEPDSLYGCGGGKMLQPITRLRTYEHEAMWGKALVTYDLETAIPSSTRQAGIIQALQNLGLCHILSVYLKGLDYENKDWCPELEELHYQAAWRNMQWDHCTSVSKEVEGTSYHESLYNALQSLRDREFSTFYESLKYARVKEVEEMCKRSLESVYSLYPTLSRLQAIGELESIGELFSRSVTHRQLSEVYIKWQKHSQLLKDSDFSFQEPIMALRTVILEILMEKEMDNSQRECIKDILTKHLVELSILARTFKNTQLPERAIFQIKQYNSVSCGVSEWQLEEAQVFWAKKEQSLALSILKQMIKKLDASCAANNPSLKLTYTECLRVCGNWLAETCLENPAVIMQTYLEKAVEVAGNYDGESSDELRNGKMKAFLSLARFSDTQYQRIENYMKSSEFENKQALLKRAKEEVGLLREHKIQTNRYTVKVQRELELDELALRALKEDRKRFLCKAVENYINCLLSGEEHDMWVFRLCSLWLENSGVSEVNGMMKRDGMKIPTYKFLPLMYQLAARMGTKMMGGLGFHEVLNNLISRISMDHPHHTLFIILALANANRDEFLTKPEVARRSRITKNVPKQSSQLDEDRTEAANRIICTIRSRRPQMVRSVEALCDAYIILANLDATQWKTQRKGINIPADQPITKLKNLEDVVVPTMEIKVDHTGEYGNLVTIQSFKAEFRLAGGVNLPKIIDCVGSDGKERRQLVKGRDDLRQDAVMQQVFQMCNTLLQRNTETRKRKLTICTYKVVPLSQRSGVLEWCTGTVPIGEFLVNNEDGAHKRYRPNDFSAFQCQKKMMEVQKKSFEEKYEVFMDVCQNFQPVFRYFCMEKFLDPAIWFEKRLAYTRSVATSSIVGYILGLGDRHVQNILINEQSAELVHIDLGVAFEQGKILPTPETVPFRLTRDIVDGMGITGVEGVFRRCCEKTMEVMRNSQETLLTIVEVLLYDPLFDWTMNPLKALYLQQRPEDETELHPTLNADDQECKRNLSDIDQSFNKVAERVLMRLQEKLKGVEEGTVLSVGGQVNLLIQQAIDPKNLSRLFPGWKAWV
T8 sequence (P29401 whole entry): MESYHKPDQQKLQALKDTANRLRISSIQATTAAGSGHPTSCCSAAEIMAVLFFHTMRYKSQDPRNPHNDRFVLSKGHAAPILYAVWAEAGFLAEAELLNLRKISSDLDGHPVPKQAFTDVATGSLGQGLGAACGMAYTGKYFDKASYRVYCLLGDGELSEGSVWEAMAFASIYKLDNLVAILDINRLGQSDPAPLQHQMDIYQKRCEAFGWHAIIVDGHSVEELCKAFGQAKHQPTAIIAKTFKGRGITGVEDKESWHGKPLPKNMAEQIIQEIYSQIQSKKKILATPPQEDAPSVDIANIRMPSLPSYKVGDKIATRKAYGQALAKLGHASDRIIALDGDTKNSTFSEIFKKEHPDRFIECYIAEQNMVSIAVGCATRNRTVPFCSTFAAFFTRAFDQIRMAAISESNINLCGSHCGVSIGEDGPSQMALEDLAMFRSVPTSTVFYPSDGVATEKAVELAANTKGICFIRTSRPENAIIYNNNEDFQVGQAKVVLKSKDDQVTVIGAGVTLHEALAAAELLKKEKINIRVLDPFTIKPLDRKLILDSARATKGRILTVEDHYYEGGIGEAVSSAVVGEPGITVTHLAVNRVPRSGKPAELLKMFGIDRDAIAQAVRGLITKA
T3 sequence (Q8IWB6 whole entry, change not shown): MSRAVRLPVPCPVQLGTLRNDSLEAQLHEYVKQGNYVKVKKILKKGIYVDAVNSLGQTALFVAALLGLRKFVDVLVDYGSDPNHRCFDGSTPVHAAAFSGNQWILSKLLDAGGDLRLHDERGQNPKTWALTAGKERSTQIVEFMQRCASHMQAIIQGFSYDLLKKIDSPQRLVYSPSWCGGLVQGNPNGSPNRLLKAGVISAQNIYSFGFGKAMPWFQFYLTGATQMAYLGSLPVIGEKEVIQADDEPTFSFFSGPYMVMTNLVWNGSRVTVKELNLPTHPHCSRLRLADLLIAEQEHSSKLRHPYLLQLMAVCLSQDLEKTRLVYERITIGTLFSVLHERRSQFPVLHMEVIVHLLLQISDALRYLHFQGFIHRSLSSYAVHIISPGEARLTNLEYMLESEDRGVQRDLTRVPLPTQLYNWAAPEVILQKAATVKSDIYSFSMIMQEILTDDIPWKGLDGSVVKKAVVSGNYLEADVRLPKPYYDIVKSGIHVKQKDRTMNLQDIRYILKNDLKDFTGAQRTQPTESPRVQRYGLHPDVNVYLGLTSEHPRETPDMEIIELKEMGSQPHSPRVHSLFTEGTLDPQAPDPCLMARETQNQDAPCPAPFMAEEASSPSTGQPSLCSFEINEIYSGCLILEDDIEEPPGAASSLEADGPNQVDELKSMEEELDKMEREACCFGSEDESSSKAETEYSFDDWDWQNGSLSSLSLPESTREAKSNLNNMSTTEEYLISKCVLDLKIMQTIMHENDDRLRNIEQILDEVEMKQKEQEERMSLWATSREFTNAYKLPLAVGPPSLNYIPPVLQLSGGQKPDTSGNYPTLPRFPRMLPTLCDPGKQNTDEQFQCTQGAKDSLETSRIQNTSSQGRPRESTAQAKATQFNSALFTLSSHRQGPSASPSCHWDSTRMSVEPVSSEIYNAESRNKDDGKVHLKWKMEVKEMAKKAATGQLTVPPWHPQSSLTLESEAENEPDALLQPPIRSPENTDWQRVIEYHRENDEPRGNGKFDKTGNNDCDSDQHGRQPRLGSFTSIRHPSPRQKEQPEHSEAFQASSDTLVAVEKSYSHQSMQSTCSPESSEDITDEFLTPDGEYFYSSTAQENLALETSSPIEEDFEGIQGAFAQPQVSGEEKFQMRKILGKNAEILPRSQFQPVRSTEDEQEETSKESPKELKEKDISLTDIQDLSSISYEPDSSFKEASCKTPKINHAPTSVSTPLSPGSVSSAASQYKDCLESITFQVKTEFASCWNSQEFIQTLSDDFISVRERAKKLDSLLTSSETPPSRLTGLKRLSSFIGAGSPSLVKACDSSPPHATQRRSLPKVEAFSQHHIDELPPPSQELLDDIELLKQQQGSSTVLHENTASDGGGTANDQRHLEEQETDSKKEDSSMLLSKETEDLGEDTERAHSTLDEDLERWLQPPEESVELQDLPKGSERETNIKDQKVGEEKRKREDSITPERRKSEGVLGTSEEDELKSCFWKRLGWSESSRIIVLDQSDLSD

With `Cc1nc(Nc2ncc(C(=O)Nc3c(C)cccc3Cl)s2)cc(N2CCN(CCO)CC2)n1` [Dasatinib], the IC50 was greater than 10 µM in [1]; 9.66 µM in test [2]; greater than 10 µM in test [3]; greater than 10 µM in test [4]; greater than 10 µM in test [5]; greater than 10 µM in test [6]. Besides, the IC50 in test [7], in test [8], in [9] and in test [10] was greater than 10 µM in each case.
